The values below are quoted from earlier work in patent publication US20070148074A1, “Nanoparticle based stabilization of ir fluorescent dyes” (priority 2003, published 2007).

The conditions of data set [1]: human body, administered intravenously.

On to `CC1(C)C(/C=C/C=C/C=C/C=C2\N(CCCCS(=O)(=O)O)c3ccc4ccccc4c3C2(C)C)=[N+](CCCCS(=O)(=O)[O-])c2ccc3ccccc3c21` [ICG, indocyanine green], for which the “fraction of dye in plasma that is protein-bound” value is recorded as around 95%. Further, the elimination half-life in data set [1] is 2 to 4 min.
